Assays:
Carboplatin = compound: C1CC(C1)(C(=O)[O-])C(=O)[O-].N.N.[Pt+2] [Carboplatin]; conditions: max 10 µM
In short: (§1)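 Viability was measured with CellTiter-Glo 2.0 luminescence after 72 hours of dosing at a final DMSO of typically 0.2%, and scaled between blank-well and DMSO-well means. Beforehand, cancer cell lines sat 24 hours at 37°C and 5% CO2 in 1536-well plates in 7.5 μl DMEM/F12 or RPMI with 10% FBS. A non-linear mixed effects model fitted two-parameter logistic curves to the dose responses. The single-agent IC50 comes from these fits.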

AZD5363 = compound: C1CN(CCC1(C(=O)N[C@@H](CCO)C2=CC=C(C=C2)Cl)N)C3=NC=NC4=C3C=CN4 [AZD5363]; conditions: max 10 µM
In short: as §1

AZD1775 = compound: C=CCn1c(=O)c2cnc(Nc3ccc(N4CCN(C)CC4)cc3)nc2n1-c1cccc(C(C)(C)O)n1 [AZD1775]; conditions: max 3 µM
In short: as §1

Trametinib = compound: CC(=O)Nc1cccc(-n2c(=O)n(C3CC3)c(=O)c3c(Nc4ccc(I)cc4F)n(C)c(=O)c(C)c32)c1 [Trametinib]; conditions: max 1 µM
In short: as §1

Paclitaxel = compound: CC(=O)O[C@H]1C(=O)[C@@]2(C)[C@H]([C@H](OC(=O)c3ccccc3)[C@]3(O)C[C@H](OC(=O)[C@H](O)[C@@H](NC(=O)c4ccccc4)c4ccccc4)C(C)=C1C3(C)C)[C@]1(OC(C)=O)CO[C@@H]1C[C@@H]2O [Paclitaxel]; conditions: max 3 µM
In short: as §1

Palbociclib = compound: CC(=O)c1c(C)c2cnc(Nc3ccc(N4CCNCC4)cn3)nc2n(C2CCCC2)c1=O [Palbociclib]; conditions: max 10 µM
In short: as §1

AZD1390 = compound: CC(C)n1c(=O)n(C)c2cnc3cc(F)c(-c4ccc(OCCCN5CCCCC5)nc4)cc3c21 [AZD1390]; conditions: max 0.3 µM
In short: as §1

Venetoclax = compound: CC1(C)CCC(CN2CCN(c3ccc(C(=O)NS(=O)(=O)c4ccc(NCC5CCOCC5)c([N+](=O)[O-])c4)c(Oc4cnc5[nH]ccc5c4)c3)CC2)=C(c2ccc(Cl)cc2)C1 [Venetoclax]; conditions: max 1 µM
In short: as §1

Dasatinib = compound: CC1=C(C(=CC=C1)Cl)NC(=O)C2=CN=C(S2)NC3=CC(=NC(=N3)C)N4CCN(CC4)CCO [Dasatinib]; conditions: max 2 µM
In short: as §1

SG3199 = compound: CC1=CN2[C@@H](C1)C=NC3=CC(=C(C=C3C2=O)OC)OCCCCCOC4=C(C=C5C(=C4)N=C[C@@H]6CC(=CN6C5=O)C)OC [SG3199]; conditions: max 0.001 µM
In short: as §1

AZD2811 = compound: CCN(CCO)CCCOc1ccc2c(Nc3cc(CC(=O)Nc4cccc(F)c4)[nH]n3)ncnc2c1 [AZD2811]; conditions: max 1 µM
In short: as §1

SN-38 = compound: CCc1c2c(nc3ccc(O)cc13)-c1cc3c(c(=O)n1C2)COC(=O)[C@]3(O)CC [SN-38]; conditions: max 0.3 µM
In short: as §1

AZD0156 = compound: CN(C)CCCOc1ccc(-c2ccc3ncc4c(c3c2)n(C2CCOCC2)c(=O)n4C)cn1 [AZD0156]; conditions: max 3 µM
In short: as §1

AZD4320 = compound: CN(CC[C@H](CSC1=CC=CC=C1)NC2=C(C=C(C=C2)S(=O)(=O)NC(=O)C3=CC=C(C=C3)N4CCC(CC4)[C@H](C5=CC=CC=C5C6=CC=C(C=C6)Cl)O)S(=O)(=O)C(F)(F)F)CCO [AZD4320]; conditions: max 1 µM
In short: as §1

Alisertib = compound: COc1cc(Nc2ncc3c(n2)-c2ccc(Cl)cc2C(c2c(F)cccc2OC)=NC3)ccc1C(=O)O [Alisertib]; conditions: max 10 µM
In short: as §1

Etoposide = compound: COc1cc([C@@H]2c3cc4c(cc3[C@@H](O[C@@H]3O[C@@H]5CO[C@@H](C)O[C@H]5[C@H](O)[C@H]3O)[C@H]3COC(=O)[C@H]23)OCO4)cc(OC)c1O [Etoposide]; conditions: max 10 µM
In short: as §1

Gefitinib = compound: COc1cc2ncnc(Nc3ccc(F)c(Cl)c3)c2cc1OCCCN1CCOCC1 [Gefitinib]; conditions: max 10 µM
In short: as §1

Prexasertib = compound: COc1cccc(OCCCN)c1-c1cc(Nc2cnc(C#N)cn2)n[nH]1 [Prexasertib]; conditions: max 1 µM
In short: as §1

Doxorubicin = compound: COc1cccc2c1C(=O)c1c(O)c3c(c(O)c1C2=O)C[C@@](O)(C(=O)CO)C[C@@H]3O[C@H]1C[C@H](N)[C@H](O)[C@H](C)O1 [Doxorubicin]; conditions: max 1 µM
In short: as §1

AZD5153 = compound: COc1nnc2ccc(N3CCC(c4ccc(OCCN5CCN(C)C(=O)[C@H]5C)cc4)CC3)nn12 [AZD5153]; conditions: max 1 µM
In short: as §1

Lapatinib = compound: CS(=O)(=O)CCNCc1ccc(-c2ccc3ncnc(Nc4ccc(OCc5cccc(F)c5)c(Cl)c4)c3c2)o1 [Lapatinib]; conditions: max 10 µM
In short: as §1

AZD8186 = compound: C[C@@H](Nc1cc(F)cc(F)c1)c1cc(C(=O)N(C)C)cc2c(=O)cc(N3CCOCC3)oc12 [AZD8186]; conditions: max 10 µM
In short: as §1

Crizotinib = compound: C[C@@H](Oc1cc(-c2cnn(C3CCNCC3)c2)cnc1N)c1c(Cl)ccc(F)c1Cl [Crizotinib]; conditions: max 10 µM
In short: as §1

Savolitinib = compound: C[C@@H](c1ccc2nccn2c1)n1nnc2ncc(-c3cnn(C)c3)nc21 [Savolitinib]; conditions: max 1 µM
In short: as §1

AZD6738 = compound: C[C@@H]1COCCN1C2=NC(=NC(=C2)C3(CC3)[S@](=N)(=O)C)C4=C5C=CNC5=NC=C4 [AZD6738]; conditions: max 10 µM
In short: as §1

AZD5991 = compound: Cc1c2c(nn1C)CSCc1cc(n(C)n1)CSc1cc(c3ccccc3c1)OCCCc1c(C(=O)O)n(C)c3c-2c(Cl)ccc13 [AZD5991]; conditions: max 1 µM
In short: as §1

AZD7648 = compound: Cc1cc2ncnn2cc1Nc1ncc2c(n1)n(C1CCOCC1)c(=O)n2C [AZD7648]; conditions: max 10 µM
In short: as §1

Taselisib = compound: Cc1nc(-c2cn3c(n2)-c2ccc(-c4cnn(C(C)(C)C(N)=O)c4)cc2OCC3)n(C(C)C)n1 [Taselisib]; conditions: max 10 µM
In short: as §1

Selumetinib = compound: Cn1cnc2c(F)c(Nc3ccc(Br)cc3Cl)c(C(=O)NOCCO)cc21 [Selumetinib]; conditions: max 10 µM
In short: as §1

SRA737 = compound: N#Cc1cnc(Nc2cc(NC[C@H]3CNCCO3)c(C(F)(F)F)cn2)cn1 [SRA737]; conditions: max 10 µM
In short: as §1

MK-2206 = compound: NC1(c2ccc(-c3nc4ccn5c(=O)[nH]nc5c4cc3-c3ccccc3)cc2)CCC1 [MK-2206]; conditions: max 10 µM
In short: as §1

Gemcitabine = compound: Nc1ccn([C@@H]2O[C@H](CO)[C@@H](O)C2(F)F)c(=O)n1 [Gemcitabine]; conditions: max 0.3 µM
In short: as §1

[1] = compound: O=C(Nc1ccc2[nH]nc(-c3ccncc3)c2c1)[C@@H]1CCN(CC(=O)N2CCN(c3ccc(-c4ncccn4)cc3)CC2)C1; conditions: max 5 µM
In short: as §1

Olaparib = compound: O=C(c1cc(Cc2n[nH]c(=O)c3ccccc23)ccc1F)N1CCN(C(=O)C2CC2)CC1 [Olaparib]; conditions: max 10 µM
In short: as §1

5-Fluorouracil = compound: O=c1[nH]cc(F)c(=O)[nH]1 [5-Fluorouracil]; conditions: max 20 µM
In short: as §1

Cell Line | IC50, cell viability 72 h (Carboplatin) | IC50, cell viability 72 h (AZD5363) | IC50, cell viability 72 h (AZD1775) | IC50, cell viability 72 h (Trametinib) | IC50, cell viability 72 h (Paclitaxel) | IC50, cell viability 72 h (Palbociclib) | IC50, cell viability 72 h (AZD1390) | IC50, cell viability 72 h (Venetoclax) | IC50, cell viability 72 h (Dasatinib) | IC50, cell viability 72 h (SG3199) | IC50, cell viability 72 h (AZD2811) | IC50, cell viability 72 h (SN-38) | IC50, cell viability 72 h (AZD0156) | IC50, cell viability 72 h (AZD4320) | IC50, cell viability 72 h (Alisertib) | IC50, cell viability 72 h (Etoposide) | IC50, cell viability 72 h (Gefitinib) | IC50, cell viability 72 h (Prexasertib) | IC50, cell viability 72 h (Doxorubicin) | IC50, cell viability 72 h (AZD5153) | IC50, cell viability 72 h (Lapatinib) | IC50, cell viability 72 h (AZD8186) | IC50, cell viability 72 h (Crizotinib) | IC50, cell viability 72 h (Savolitinib) | IC50, cell viability 72 h (AZD6738) | IC50, cell viability 72 h (AZD5991) | IC50, cell viability 72 h (AZD7648) | IC50, cell viability 72 h (Taselisib) | IC50, cell viability 72 h (Selumetinib) | IC50, cell viability 72 h (SRA737) | IC50, cell viability 72 h (MK-2206) | IC50, cell viability 72 h (Gemcitabine) | IC50, cell viability 72 h [1] | IC50, cell viability 72 h (Olaparib) | IC50, cell viability 72 h (5-Fluorouracil)
COLO-679 (Melanoma) | > 10 µM | > 10 µM | > 3 µM | 0.0037 µM | 0.658 µM | > 10 µM | > 0.3 µM | > 1 µM | > 2 µM | > 0.001 µM | > 1 µM | 0.0461 µM | > 3 µM | > 1 µM | > 10 µM | 7.18 µM | > 10 µM | 0.0112 µM | 0.342 µM | > 1 µM | > 10 µM | > 10 µM | > 10 µM | > 1 µM | 4.92 µM | > 1 µM | > 10 µM | > 10 µM | 0.242 µM | 1.89 µM | > 10 µM | 0.0152 µM | 0.0906 µM | > 10 µM | > 20 µM
Mo-T (Other Blood Carcinomas) | > 10 µM | > 10 µM | 0.79 µM | > 1 µM | 0.106 µM | > 10 µM | > 0.3 µM | > 1 µM | > 2 µM | > 0.001 µM | > 1 µM | 0.044 µM | > 3 µM | 0.671 µM | > 10 µM | 1.09 µM | > 10 µM | > 1 µM | 0.217 µM | 0.343 µM | > 10 µM | > 10 µM | > 10 µM | > 1 µM | > 10 µM | > 1 µM | > 10 µM | > 10 µM | > 10 µM | > 10 µM | > 10 µM | 0.0526 µM | > 5 µM | > 10 µM | > 20 µM
